From publication PMC6409085, “Three odorant-binding proteins are involved in the behavioral response of Sogatella furcifera to rice plant volatiles” (PeerJ, 2019)
“And” between values parts separate entries of the source, which are not always exact repeats. Equal entries are not always repeated.

What was measured:
SfurOBP11 = SfurOBP11 (Sogatella furcifera, UniProt V5T6E3); test: biochemical; type: binding
Method in brief: (§1)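 1-NPN displacement assay with odorant competitor at 2–20 µM; protein and probe both 2.0 µM at pH 7.4. Ki is calculated from IC50 using the protein/1-NPN dissociation constant.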

SfurOBP3 = SfurOBP3 (Sogatella furcifera, UniProt V5T818); test: biochemical; type: binding; conditions: for Fluorescence competitive binding assay, fluorescence intensity: OBP3, three replicate columns
SfurOBP3, sequence (V5T818 entry or part of it): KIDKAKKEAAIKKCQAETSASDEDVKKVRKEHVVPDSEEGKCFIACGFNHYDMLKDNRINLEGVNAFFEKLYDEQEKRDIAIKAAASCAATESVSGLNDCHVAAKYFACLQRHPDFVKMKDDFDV
Method in brief: as §1

SfurOBP2 = SfurOBP2 (Sogatella furcifera, UniProt V5T759); test: biochemical; type: binding
SfurOBP2, sequence (V5T759 entry or part of it): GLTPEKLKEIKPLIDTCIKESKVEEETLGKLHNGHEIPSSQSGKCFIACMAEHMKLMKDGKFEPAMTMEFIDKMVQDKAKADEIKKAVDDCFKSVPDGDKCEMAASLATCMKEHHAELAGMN
Method in brief: as §1

SfurOBP1 = SfurOBP1 (Sogatella furcifera, UniProt V5T8N5); test: biochemical; type: binding; conditions: for Fluorescence competitive binding assay, fluorescence intensity: OBP1, three replicate columns
SfurOBP1, sequence (V5T8N5 entry or part of it): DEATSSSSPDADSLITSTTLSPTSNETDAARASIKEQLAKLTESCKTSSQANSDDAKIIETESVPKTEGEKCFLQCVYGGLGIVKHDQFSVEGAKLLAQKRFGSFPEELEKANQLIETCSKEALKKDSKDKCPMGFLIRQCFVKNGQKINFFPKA
Method in brief: as §1

S. furcifera adults = test: Y-tube olfactometer behavioral trials; type: in vivo, Sogatella furcifera; conditions: odorant 50 µL/L vs hexane; adults
Method in brief: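 Single S. furcifera adults (2 days post-emergence, starved 0.5 h) chose between odorant (100 µL of 50 µL/L on filter paper) and hexane control in a glass Y-tube, charcoal-filtered humidified air 300 mL/min per arm, 25 ± 1 °C, 50% RH. Choice scored if insect passed half an arm and stayed >1 min within 10 min; 45 insects per compound, chi-squared test.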

SfurOBP11, sequence (V5T6E3 entry or part of it): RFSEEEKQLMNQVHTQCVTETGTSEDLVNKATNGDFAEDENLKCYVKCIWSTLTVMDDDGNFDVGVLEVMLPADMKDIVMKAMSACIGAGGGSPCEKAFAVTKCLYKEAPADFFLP

2-heptanonol
IC50 (SfurOBP11; SfurOBP11, protein and 1-NPN both 2.0 µM, competitor 2-20 µM, read-out: IC50): > 20 µM | Fluorescence intensity, fluorescence competitive binding assay, OBP11 (SfurOBP11; ligand concentration 2, replicate 1): 32214 | Fluorescence intensity, fluorescence competitive binding assay, OBP11 (SfurOBP11; ligand concentration 2, replicate 2): 33277 | Fluorescence intensity, fluorescence competitive binding assay, OBP11 (SfurOBP11; ligand concentration 2, replicate 3): 35354 | Fluorescence intensity, fluorescence competitive binding assay, OBP11 (SfurOBP11; ligand concentration 4, replicate 1): 33125 | Fluorescence intensity, fluorescence competitive binding assay, OBP11 (SfurOBP11; ligand concentration 4, replicate 2): 35054 | Fluorescence intensity, fluorescence competitive binding assay, OBP11 (SfurOBP11; ligand concentration 4, replicate 3): 33696 | Fluorescence intensity, fluorescence competitive binding assay, OBP11 (SfurOBP11; ligand concentration 6, replicate 1): 31772 | Fluorescence intensity, fluorescence competitive binding assay, OBP11 (SfurOBP11; ligand concentration 6, replicate 2): 31091 | Fluorescence intensity, fluorescence competitive binding assay, OBP11 (SfurOBP11; ligand concentration 6, replicate 3): 33532 | Fluorescence intensity, fluorescence competitive binding assay, OBP11 (SfurOBP11; ligand concentration 8, replicate 1): 28812 | Fluorescence intensity, fluorescence competitive binding assay, OBP11 (SfurOBP11; ligand concentration 8, replicate 2): 31104 | Fluorescence intensity, fluorescence competitive binding assay, OBP11 (SfurOBP11; ligand concentration 8, replicate 3): 31825 | Fluorescence intensity, fluorescence competitive binding assay, OBP11 (SfurOBP11; ligand concentration 10, replicate 1): 28521 | Fluorescence intensity, fluorescence competitive binding assay, OBP11 (SfurOBP11; ligand concentration 10, replicate 2): 30054 | Fluorescence intensity, fluorescence competitive binding assay, OBP11 (SfurOBP11; ligand concentration 10, replicate 3): 29747 | Fluorescence intensity, fluorescence competitive binding assay, OBP11 (SfurOBP11; ligand concentration 12, replicate 1): 26176 | Fluorescence intensity, fluorescence competitive binding assay, OBP11 (SfurOBP11; ligand concentration 12, replicate 2): 26507 | Fluorescence intensity, fluorescence competitive binding assay, OBP11 (SfurOBP11; ligand concentration 12, replicate 3): 26325 | Fluorescence intensity, fluorescence competitive binding assay, OBP11 (SfurOBP11; ligand concentration 14, replicate 1): 24809 | Fluorescence intensity, fluorescence competitive binding assay, OBP11 (SfurOBP11; ligand concentration 14, replicate 2): 27546 | Fluorescence intensity, fluorescence competitive binding assay, OBP11 (SfurOBP11; ligand concentration 14, replicate 3): 28489 | Fluorescence intensity, fluorescence competitive binding assay, OBP11 (SfurOBP11; ligand concentration 16, replicate 1): 22169 | Fluorescence intensity, fluorescence competitive binding assay, OBP11 (SfurOBP11; ligand concentration 16, replicate 2): 21457 | Fluorescence intensity, fluorescence competitive binding assay, OBP11 (SfurOBP11; ligand concentration 16, replicate 3): 24839 | Fluorescence intensity, fluorescence competitive binding assay, OBP11 (SfurOBP11; ligand concentration 18, replicate 1): 29523 | Fluorescence intensity, fluorescence competitive binding assay, OBP11 (SfurOBP11; ligand concentration 18, replicate 2): 28673 | Fluorescence intensity, fluorescence competitive binding assay, OBP11 (SfurOBP11; ligand concentration 18, replicate 3): 27420 | Fluorescence intensity, fluorescence competitive binding assay, OBP11 (SfurOBP11; ligand concentration 20, replicate 1): 25385 | Fluorescence intensity, fluorescence competitive binding assay, OBP11 (SfurOBP11; ligand concentration 20, replicate 2): 25884 | Fluorescence intensity, fluorescence competitive binding assay, OBP11 (SfurOBP11; ligand concentration 20, replicate 3): 25605 | Fluorescence competitive binding assay, fluorescence intensity (SfurOBP3; ligand concentration 2): 45232 and 45869 and 44594 | Fluorescence competitive binding assay, fluorescence intensity (SfurOBP3; ligand concentration 4): 45996 and 44453 and 43020 | Fluorescence competitive binding assay, fluorescence intensity (SfurOBP3; ligand concentration 6): 47391 and 47743 and 47567 | Fluorescence competitive binding assay, fluorescence intensity (SfurOBP3; ligand concentration 8): 48801 and 50407 and 49604 | Fluorescence competitive binding assay, fluorescence intensity (SfurOBP3; ligand concentration 10): 51610 and 62768 and 47878 | Fluorescence competitive binding assay, fluorescence intensity (SfurOBP3; ligand concentration 12): 54498 and 52011 and 51877 | Fluorescence competitive binding assay, fluorescence intensity (SfurOBP3; ligand concentration 14): 42842 (2×) and 42142 | Fluorescence competitive binding assay, fluorescence intensity (SfurOBP3; ligand concentration 16): 41166 and 44357 and 42754 | Fluorescence competitive binding assay, fluorescence intensity (SfurOBP3; ligand concentration 18): 42621 and 43724 and 41536 | Fluorescence competitive binding assay, fluorescence intensity (SfurOBP3; ligand concentration 20): 45786 and 37456 and 39383 | IC50 (SfurOBP3; SfurOBP3, protein and 1-NPN both 2.0 µM, competitor 2-20 µM, read-out: IC50): > 20 µM | IC50 (SfurOBP2; SfurOBP2, protein and 1-NPN both 2.0 µM, competitor 2-20 µM, read-out: IC50): > 20 µM | Fluorescence competitive binding assay, OBP2 (raw fluorescence reading) (SfurOBP2; ligand concentration 2 (unit not given), replicate column 1 of 3): 18612 | Fluorescence competitive binding assay, OBP2 (raw fluorescence reading) (SfurOBP2; ligand concentration 2 (unit not given), replicate column 2 of 3): 18747 | Fluorescence competitive binding assay, OBP2 (raw fluorescence reading) (SfurOBP2; ligand concentration 2 (unit not given), replicate column 3 of 3): 19681 | Fluorescence competitive binding assay, OBP2 (raw fluorescence reading) (SfurOBP2; ligand concentration 4 (unit not given), replicate column 1 of 3): 19302 | Fluorescence competitive binding assay, OBP2 (raw fluorescence reading) (SfurOBP2; ligand concentration 4 (unit not given), replicate column 2 of 3): 19993 | Fluorescence competitive binding assay, OBP2 (raw fluorescence reading) (SfurOBP2; ligand concentration 4 (unit not given), replicate column 3 of 3): 20683 | Fluorescence competitive binding assay, OBP2 (raw fluorescence reading) (SfurOBP2; ligand concentration 6 (unit not given), replicate column 1 of 3): 18811 | Fluorescence competitive binding assay, OBP2 (raw fluorescence reading) (SfurOBP2; ligand concentration 6 (unit not given), replicate column 2 of 3): 18736 | Fluorescence competitive binding assay, OBP2 (raw fluorescence reading) (SfurOBP2; ligand concentration 6 (unit not given), replicate column 3 of 3): 18774 | Fluorescence competitive binding assay, OBP2 (raw fluorescence reading) (SfurOBP2; ligand concentration 8 (unit not given), replicate column 1 of 3): 16468 | Fluorescence competitive binding assay, OBP2 (raw fluorescence reading) (SfurOBP2; ligand concentration 8 (unit not given), replicate column 2 of 3): 16720 | Fluorescence competitive binding assay, OBP2 (raw fluorescence reading) (SfurOBP2; ligand concentration 8 (unit not given), replicate column 3 of 3): 16981 | Fluorescence competitive binding assay, OBP2 (raw fluorescence reading) (SfurOBP2; ligand concentration 10 (unit not given), replicate column 1 of 3): 16986 | Fluorescence competitive binding assay, OBP2 (raw fluorescence reading) (SfurOBP2; ligand concentration 10 (unit not given), replicate column 2 of 3): 17111 | Fluorescence competitive binding assay, OBP2 (raw fluorescence reading) (SfurOBP2; ligand concentration 10 (unit not given), replicate column 3 of 3): 16240 | Fluorescence competitive binding assay, OBP2 (raw fluorescence reading) (SfurOBP2; ligand concentration 12 (unit not given), replicate column 1 of 3): 16820 | Fluorescence competitive binding assay, OBP2 (raw fluorescence reading) (SfurOBP2; ligand concentration 12 (unit not given), replicate column 2 of 3): 17596 | Fluorescence competitive binding assay, OBP2 (raw fluorescence reading) (SfurOBP2; ligand concentration 12 (unit not given), replicate column 3 of 3): 18083 | Fluorescence competitive binding assay, OBP2 (raw fluorescence reading) (SfurOBP2; ligand concentration 14 (unit not given), replicate column 1 of 3): 17387 | Fluorescence competitive binding assay, OBP2 (raw fluorescence reading) (SfurOBP2; ligand concentration 14 (unit not given), replicate column 2 of 3): 16676 | Fluorescence competitive binding assay, OBP2 (raw fluorescence reading) (SfurOBP2; ligand concentration 14 (unit not given), replicate column 3 of 3): 18097 | Fluorescence competitive binding assay, OBP2 (raw fluorescence reading) (SfurOBP2; ligand concentration 16 (unit not given), replicate column 1 of 3): 16472 | Fluorescence competitive binding assay, OBP2 (raw fluorescence reading) (SfurOBP2; ligand concentration 16 (unit not given), replicate column 2 of 3): 16454 | Fluorescence competitive binding assay, OBP2 (raw fluorescence reading) (SfurOBP2; ligand concentration 16 (unit not given), replicate column 3 of 3): 17500 | Fluorescence competitive binding assay, OBP2 (raw fluorescence reading) (SfurOBP2; ligand concentration 18 (unit not given), replicate column 1 of 3): 16574 | Fluorescence competitive binding assay, OBP2 (raw fluorescence reading) (SfurOBP2; ligand concentration 18 (unit not given), replicate column 2 of 3): 16302 | Fluorescence competitive binding assay, OBP2 (raw fluorescence reading) (SfurOBP2; ligand concentration 18 (unit not given), replicate column 3 of 3): 16787 | Fluorescence competitive binding assay, OBP2 (raw fluorescence reading) (SfurOBP2; ligand concentration 20 (unit not given), replicate column 1 of 3): 15630 | Fluorescence competitive binding assay, OBP2 (raw fluorescence reading) (SfurOBP2; ligand concentration 20 (unit not given), replicate column 2 of 3): 15665 | Fluorescence competitive binding assay, OBP2 (raw fluorescence reading) (SfurOBP2; ligand concentration 20 (unit not given), replicate column 3 of 3): 15648 | Fluorescence competitive binding assay, fluorescence intensity (SfurOBP1; ligand concentration 2 (μM)): 5887 and 5646 and 5767 | Fluorescence competitive binding assay, fluorescence intensity (SfurOBP1; ligand concentration 4 (μM)): 7288 and 7577 and 6996 | Fluorescence competitive binding assay, fluorescence intensity (SfurOBP1; ligand concentration 6 (μM)): 5995 and 5950 and 6027 | Fluorescence competitive binding assay, fluorescence intensity (SfurOBP1; ligand concentration 8 (μM)): 7072 and 6140 and 5704 | Fluorescence competitive binding assay, fluorescence intensity (SfurOBP1; ligand concentration 10 (μM)): 8690 and 6215 and 5653 | Fluorescence competitive binding assay, fluorescence intensity (SfurOBP1; ligand concentration 12 (μM)): 7048 and 7677 and 6537 | Fluorescence competitive binding assay, fluorescence intensity (SfurOBP1; ligand concentration 14 (μM)): 6232 and 8602 and 7115 | Fluorescence competitive binding assay, fluorescence intensity (SfurOBP1; ligand concentration 16 (μM)): 5533 and 5298 and 5778 | Fluorescence competitive binding assay, fluorescence intensity (SfurOBP1; ligand concentration 18 (μM)): 5895 and 6061 and 6136 | Fluorescence competitive binding assay, fluorescence intensity (SfurOBP1; ligand concentration 20 (μM)): 5784 and 5580 and 5212 | IC50 (SfurOBP1; SfurOBP1, protein and 1-NPN both 2.0 µM, competitor 2-20 µM, read-out: IC50): > 20 µM | number of insects choosing hexane arm (S. furcifera adults): 13 | number of insects choosing volatilies arm (S. furcifera adults): 16 | number of insects failed (no choice) (S. furcifera adults): 13
